Measured values reported in patent US10253355B2, “Instrument and system for rapid microorganism identification and antimicrobial agent susceptibility testing” (Accelerate Diagnostics, Inc., priority 2015, dated 2019).
Read-outs that look alike come from different tables or passages of the source.

What was measured:
[1] = test system: Enterococcus faecalis ATCC 29212; assay: AST QC assay on AD-1 instrument, QC isolate E. faecalis ATCC 29212; assay type: cell-based; conditions: unit assumed
Description: (§1) The reportable range for the AST QC assay in some examples are adjusted such that the selected QC isolates have an MIC that is within the reportable range of the QC Assay. These extended ranges are only applied to QC testing and are not applied to AST assessment of patient samples. The process for assigning an MIC value to the QC organisms is the same or similar to that used for patient samples. […] This approach allows testing of, for example, CLSI recommended QC isolates without affecting the algorithms that are optimized around antimicrobial breakpoints. The algorithms used in ID QC or AST QC testing include those described above, for example, when the QC test samples are microbial isolates. For ID QC testing utilizing target microbial nucleic acids coupled to a bead, positive detection is achieved by comparing the cumulative count in the target (e.g., Green fluorescence channel) only against a threshold of objects that have brightness exceeding bead autofluorescence. Negative control detection is achieved by doing the same for eubacteria (e.g., Red fluorescence) channel only. For example, the number of bright red objects should not exceed a threshold in order to pass negative control.
(§2) The results of the identification assay drive antibiotic selection for antimicrobial susceptibility testing. The remaining samples undergo a pre-growth step to normalize growth rates during the approximately 1-hour FISH ID assay. The concentration of organisms in the purified inoculum was determined by repeating the quantitation process with a universal nucleic acid stain as previously described herein. […] Following cell immobilization, antimicrobial solutions in Mueller-Hinton agar were dispensed into the flowcells. Different antimicrobials were tested in separate flowcells, and only a single concentration of each antimicrobial was used. A growth control consisting of Mueller-Hinton agar without any antimicrobial was included for each run. A dark-field microscope and camera produced time-lapse images approximately every 10 minutes of progenitor cells growing into clones of daughter cells in each flowcell. The agar ensured daughter cells were immobilized and remained localized to each growing clone. Resistant clones grew while susceptible clones arrest or lyse over time (FIG. 90).
(§3) Custom image analysis software assigned unique spatial XY coordinates to individual progenitor cells (FIG. 91), allowing each growing clone across a series of time-lapse images to be identified. The intensity of each clone can be used as a metric of clone mass in each image. By measuring over time, this metric was used to generate growth curves for each individual clone (FIG. 92). The pattern of cell responses was used to determine the susceptibility of the overall population. Computer algorithms developed for each organism-antimicrobial combination convert microbial growth response into an MIC value using a mathematical regression model based on the response of isolates with known MICs for a single-concentration of a given antimicrobial. Once obtained, MIC values were interpreted using FDA, CLSI or EUCAST breakpoints along with expert rules to determine the categorical result (susceptible (S), intermediate (I) or resistant (R)). In addition to MICs, this technique was applied to phenotypic resistance mechanism detection.
(§4) In this example, the AST QC consumable insert consisted of 8 wells configured in a “pi” shape, as shown in the dark gray shading in FIG. 109. The AST QC panel was composed of seven CLSI recommended isolates that provide “on-scale” MIC results for all of the antimicrobial agents included in a sample blood culture test. A C. albicans isolate was used for Quality Control assessment of the […] component of the AD-1 Instrument System.
(§5) Table 9 below lists each organism and the corresponding antimicrobial agent that was tested in the AST QC assay. […]

[2] = test system: Pseudomonas aeruginosa ATCC 27853; conditions: cited from earlier work; for Organism QC Range (MIC): AST QC panel (Table 9), CLSI recommended isolate P. aeruginosa ATCC 27853; for Expected (MIC acceptance range): P. aeruginosa ATCC 27853
[3] = test system: Pseudomonas aeruginosa ATCC 27853; assay: AST QC assay on AD-1 instrument, QC isolate P. aeruginosa ATCC 27853; assay type: cell-based
Description: as §1, §2, §3, §4, §5

[4] = test system: Enterococcus faecalis ATCC 29212; conditions: cited from earlier work; for Organism QC Range (MIC): AST QC panel (Table 9), CLSI recommended isolate E. faecalis ATCC 29212; for Expected (MIC acceptance range): E. faecalis ATCC 29212
[5] = test system: Escherichia coli ATCC 25922; assay: AST QC assay on AD-1 instrument, QC isolate E. coli ATCC 25922; assay type: cell-based; conditions: unit assumed
Description: as §1, §2, §3, §4, §5

[6] = test system: Escherichia coli ATCC 25922; conditions: in µg/mL (unit assumed), cited from earlier work; for Organism QC Range (MIC): AST QC panel (Table 9), CLSI recommended isolate E. coli ATCC 25922; for Expected (MIC acceptance range): E. coli ATCC 25922
[7] = AST only report (Table 10), in µg/mL (unit assumed)
[8] = ID and AST report (Table 11), in µg/mL (unit assumed)

Molecule	Result (MIC value) ([1]; AST only report (Table 10)) [mg/L]	Organism QC Range (MIC) ([2]; in µg/mL (unit assumed))	Result (MIC value) ([3]; AST only report (Table 10)) [mg/L]	Result (MIC value) ([3]; ID and AST report (Table 11)) [mg/L]	Expected (MIC acceptance range) [2, 7]	Expected (MIC acceptance range) [2, 8]	also measured
C[C@H]1c2cccc(O)c2C(=O)C2=C(O)[C@]3(O)C(=O)C(C(N)=O)=C(O)[C@@H](N(C)C)[C@@H]3[C@@H](O)[C@@H]21 [Doxycycline]	4						Result (MIC value) ([1]; ID and AST report (Table 11)): 4 mg/L
CO/N=C(\C(=O)N[C@@H]1C(=O)N2C(C(=O)[O-])=C(C[N+]3(C)CCCC3)CS[C@H]12)c1csc(N)n1 [Cefepime]		0.5-4	2	2			Expected (MIC acceptance range) ([2]; AST only report (Table 10)): 0.5-4^; Expected (MIC acceptance range) ([2]; ID and AST report (Table 11)): 0.5-4^
CN[C@H](CC(C)C)C(=O)N[C@H]1C(=O)N[C@@H](CC(N)=O)C(=O)N[C@H]2C(=O)N[C@H]3C(=O)N[C@H](C(=O)N[C@H](C(=O)O)c4cc(O)cc(O)c4-c4cc3ccc4O)[C@H](O)c3ccc(c(Cl)c3)Oc3cc2cc(c3O[C@@H]2O[C@H](CO)[C@@H](O)[C@H](O)[C@H]2O[C@H]2C[C@](C)(N)[C@H](O)[C@H](C)O2)Oc2ccc(cc2Cl)[C@H]1O [Vancomycin]	2						Result (MIC value) ([1]; ID and AST report (Table 11)): 2 mg/L; Organism QC Range (MIC) ([4]; in µg/mL (unit assumed)): 0.5-2; Expected (MIC acceptance range) [4, 7]: 1-4; Expected (MIC acceptance range) [4, 8]: 1-4
C[C@@H](O)[C@H]1C(=O)N2C(C(=O)O)=C(S[C@@H]3CN[C@H](C(=O)N(C)C)C3)[C@H](C)[C@H]12 [Meropenem]		0.25-1	0.5	0.5	0.25-1	0.25-1	
C[C@@H](O)[C@H]1C(=O)N2C(C(=O)O)=C(S[C@@H]3CN[C@H](C(=O)Nc4cccc(C(=O)O)c4)C3)[C@H](C)[C@H]12 [Ertapenem]		2-8	4	4	2-8	2-8	
Gentamicin		0.5-2	1	1			Expected (MIC acceptance range) ([2]; AST only report (Table 10)): 0.5-2^; Expected (MIC acceptance range) ([2]; ID and AST report (Table 11)): 0.5-2^
Colistin		0.5-4	2	2			Expected (MIC acceptance range) ([2]; AST only report (Table 10)): 0.5-4^; Expected (MIC acceptance range) ([2]; ID and AST report (Table 11)): 0.5-4^
O=C(O)c1cn(C2CC2)c2cc(N3CCNCC3)c(F)cc2c1=O [Ciprofloxacin]			0.5	0.5	0.25-1	0.25-1	
NC[C@H]1O[C@H](O[C@H]2[C@H](O)[C@@H](O[C@H]3O[C@H](CO)[C@@H](O)[C@H](N)[C@H]3O)[C@H](N)C[C@@H]2N)[C@H](N)C[C@@H]1O [Tobramycin]		0.25-1	0.5	0.5	0.25-1	0.25-1	
CC1(C)S[C@@H]2[C@H](NC(=O)[C@H](N)c3ccccc3)C(=O)N2[C@H]1C(=O)O [Ampicillin]	1						Organism QC Range (MIC) ([4]; in µg/mL (unit assumed)): 0.5-2; Expected (MIC acceptance range) ([4]; AST only report (Table 10)): 0.5-2^
CCCCCCCCCC(=O)N[C@@H](Cc1c[nH]c2ccccc12)C(=O)N[C@H](CC(N)=O)C(=O)N[C@@H](CC(=O)O)C(=O)N[C@@H]1C(=O)NCC(=O)N[C@@H](CCCN)C(=O)N[C@@H](CC(=O)O)C(=O)N[C@H](C)C(=O)N[C@@H](CC(=O)O)C(=O)NCC(=O)N[C@H](CO)C(=O)N[C@@H]([C@H](C)CC(=O)O)C(=O)N[C@@H](CC(=O)c2ccccc2N)C(=O)O[C@@H]1C [Daptomycin]	2						Result (MIC value) ([1]; ID and AST report (Table 11)): 2 mg/L; Organism QC Range (MIC) ([4]; in µg/mL (unit assumed)): 1-4; Expected (MIC acceptance range) [4, 7]: 1-4; Expected (MIC acceptance range) [4, 8]: 1-4
CN(C)c1ccc(O)c2c1C[C@H]1C[C@H]3[C@H](N(C)C)C(O)=C(C(N)=O)C(=O)[C@@]3(O)C(O)=C1C2=O [Minocycline]							Result (MIC value) ([5]; AST only report (Table 10)): 0.5 mg/L; Result (MIC value) ([5]; ID and AST report (Table 11)): 0.5 mg/L
NCC[C@H](O)C(=O)N[C@@H]1C[C@H](N)[C@@H](O[C@H]2O[C@H](CN)[C@@H](O)[C@H](O)[C@H]2O)[C@H](O)[C@H]1O[C@H]1O[C@H](CO)[C@@H](O)[C@H](N)[C@H]1O [Amikacin]		1-4	2	2	1-4	1-4	
Cc1nnc(SCC2=C(C(=O)O)N3C(=O)[C@@H](NC(=O)Cn4cnnn4)[C@H]3SC2)s1 [Cefazolin]							Organism QC Range (MIC) [6]: 1-4; Expected (MIC acceptance range) ([6]; AST only report (Table 10)): 1-4; Result (MIC value) ([5]; AST only report (Table 10)): 2 mg/L
CCO/N=C(\C(=O)N[C@@H]1C(=O)N2C(C(=O)[O-])=C(Sc3nc(-c4cc[n+](C)cc4)cs3)CS[C@H]12)c1nsc(N)n1 [Ceftaroline]	1						Result (MIC value) ([1]; ID and AST report (Table 11)): 1 mg/L
CC(C)(O/N=C(\C(=O)N[C@@H]1C(=O)N2C(C(=O)[O-])=C(C[n+]3ccccc3)CS[C@H]12)c1csc(N)n1)C(=O)O [Ceftazidime]							Organism QC Range (MIC) [6]: 1-4; Expected (MIC acceptance range) ([6]; AST only report (Table 10)): 0.06-0.5; Expected (MIC acceptance range) ([6]; ID and AST report (Table 11)): 0.06-0.5; Result (MIC value) ([5]; AST only report (Table 10)): 0.25 mg/L; Result (MIC value) ([5]; ID and AST report (Table 11)): 0.25 mg/L
CC(=O)NC[C@H]1CN(c2ccc(N3CCOCC3)c(F)c2)C(=O)O1 [Linezolid]	2						Result (MIC value) ([1]; ID and AST report (Table 11)): 2 mg/L; Organism QC Range (MIC) ([4]; in µg/mL (unit assumed)): 1-4; Expected (MIC acceptance range) [4, 7]: 1-4; Expected (MIC acceptance range) [4, 8]: 1-4
C[C@H]1[C@H](NC(=O)/C(=N\OC(C)(C)C(=O)O)c2csc(N)n2)C(=O)N1S(=O)(=O)O [Aztreonam]		2-8	4	4	2-8	2-8	
CO/N=C(\C(=O)N[C@@H]1C(=O)N2C(C(=O)O)=C(CSc3nc(=O)c(=O)[nH]n3C)CS[C@H]12)c1csc(N)n1 [Ceftriaxone]							Organism QC Range (MIC) [6]: 0.03-0.12; Expected (MIC acceptance range) ([6]; AST only report (Table 10)): 0.03-0.125; Expected (MIC acceptance range) ([6]; ID and AST report (Table 11)): 0.03-0.125; Result (MIC value) ([5]; AST only report (Table 10)): 0.0525 mg/L; Result (MIC value) ([5]; ID and AST report (Table 11)): 0.0525 mg/L
